The text below walks through data of article PMC10541190 (The Journal of Clinical Investigation, 2023).

Series [1] has as its system Calu-3 cells. The note with it: human, 1.25 µM.
For series [2], the target named is ErbB2 (HER2) (Homo sapiens, UniProt P04626). Kind of series: biochemical. Particulars: read-out: ErbB2 activity (%).
The subject of series [3] is SARS-CoV-2 (USA-WA1/2020). Kind of series: microbe, parasite or virus in culture. Format: cell-based. Particulars: Severe acute respiratory syndrome coronavirus 2, Calu-3, read-out: EC50, SARS-CoV-2 infection.
Series [4] relates to VEEV (TC-83). The series can be described thus: microbe, parasite or virus in culture. The note with it: Venezuelan equine encephalitis virus, U-87 MG, read-out: EC50, VEEV (TC-83) infection. Type of series: cell-based.
In series [5] the test system is SARS-CoV-2 main protease (Mpro). Particulars: cited from earlier work.
The conditions of series [6]: human, in vivo; cited from earlier work.
The test system of series [7] is TNF-α, IL-1β, IL-6, MCP-1. Type of series: cell-based, human.
Series [8] concerns MAP2K5. Particulars: cited from earlier work.
Series [9] relates to DENV2. Kind of series: microbe, parasite or virus in culture. The note with it: Dengue virus, DENV2, Huh-7, read-out: EC50, DENV2 replication. Format: cell-based.
The test system of series [10] is STK10. Particulars: cited from earlier work.

pEC50: −log10 of the molar value. Where “and” joins values, the source holds several entries; their conditions need not be identical. Equal entries are not always repeated.

The term pEC50 denotes −log10 of the EC50, conventionally taken in molar units.

ErbB2 (HER2), sequence (P04626 23-1255): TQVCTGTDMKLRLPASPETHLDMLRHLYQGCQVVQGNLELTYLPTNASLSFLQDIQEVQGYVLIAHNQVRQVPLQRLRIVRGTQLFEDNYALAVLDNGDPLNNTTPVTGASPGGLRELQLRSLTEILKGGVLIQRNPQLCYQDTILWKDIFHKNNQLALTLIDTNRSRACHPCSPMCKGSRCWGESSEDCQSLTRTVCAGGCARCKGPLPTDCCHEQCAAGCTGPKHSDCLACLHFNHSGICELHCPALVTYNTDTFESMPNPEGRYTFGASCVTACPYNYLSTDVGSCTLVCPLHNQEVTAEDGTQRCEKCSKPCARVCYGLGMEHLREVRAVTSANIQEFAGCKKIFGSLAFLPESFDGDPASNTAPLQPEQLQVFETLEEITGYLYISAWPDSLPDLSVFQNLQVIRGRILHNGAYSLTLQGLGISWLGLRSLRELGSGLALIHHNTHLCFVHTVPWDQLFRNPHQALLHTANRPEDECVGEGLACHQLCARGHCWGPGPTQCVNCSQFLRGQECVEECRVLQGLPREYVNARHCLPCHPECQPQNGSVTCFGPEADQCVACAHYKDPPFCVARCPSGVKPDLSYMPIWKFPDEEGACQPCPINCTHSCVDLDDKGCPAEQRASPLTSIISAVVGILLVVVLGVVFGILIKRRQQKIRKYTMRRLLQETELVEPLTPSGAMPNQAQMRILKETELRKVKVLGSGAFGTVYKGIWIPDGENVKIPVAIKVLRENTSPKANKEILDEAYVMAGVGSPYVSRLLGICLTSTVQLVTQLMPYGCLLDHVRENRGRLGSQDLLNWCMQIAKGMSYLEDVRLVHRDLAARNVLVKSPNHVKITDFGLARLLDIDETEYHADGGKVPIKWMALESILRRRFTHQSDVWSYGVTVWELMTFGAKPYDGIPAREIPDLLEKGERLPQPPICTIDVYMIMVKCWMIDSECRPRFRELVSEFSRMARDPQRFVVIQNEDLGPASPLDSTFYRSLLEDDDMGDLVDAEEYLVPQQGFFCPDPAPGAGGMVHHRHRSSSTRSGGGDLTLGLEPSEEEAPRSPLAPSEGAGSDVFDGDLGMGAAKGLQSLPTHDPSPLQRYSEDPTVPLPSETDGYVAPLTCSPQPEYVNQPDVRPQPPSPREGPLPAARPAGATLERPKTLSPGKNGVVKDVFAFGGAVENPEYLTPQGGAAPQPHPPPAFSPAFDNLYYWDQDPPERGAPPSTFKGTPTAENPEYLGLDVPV

With `CS(=O)(=O)CCNCc1ccc(-c2ccc3ncnc(Nc4ccc(OCc5cccc(F)c5)c(Cl)c4)c3c2)o1` [Lapatinib], in series [1], the “Calu-3 cell viability (%)” value was 85.68%. In [2], the activity at 0.001 µM stood at 91.6%, the activity at 0.003 µM came to 84.5%, the activity at 0.009 µM came to 64% and the activity at 0.247 µM worked out at 14%. Further, in [2], the activity at 2.222 µM turned out to be 3.4%; the activity at 6.667 µM was 2.28%; the activity at 20 µM came to 2%; the activity at […] is 27.2% and 45.3% and 6.63%. For the same compound, the pEC50 in series [3] is 6.15. The pEC50 in series [4] was 5.92. Further, the “effect on SARS-CoV-2 main protease (Mpro)” value in series [5] is given as “inhibits”. The “estimated incidence of pneumonitis, interstitial lung disease or lung fibrosis” value in series [6] is 0.2%. Also, in series [7], the “IL-6 concentration in ALOs' supernatants” value was 6.30 pg/mL and 5.01 pg/mL and 5.83 pg/mL and 5.58 pg/mL and 5.85 pg/mL and 5.34 pg/mL and 4.40 pg/mL and 3.70 pg/mL; the “MCP-1 concentration in ALOs' supernatants” value is 39.85 pg/mL and 40.23 pg/mL and 32.64 pg/mL and 29.59 pg/mL and 33.59 pg/mL and 31.32 pg/mL and 47.61 pg/mL and 36.68 pg/mL; the “concentration achieving cytokine levels at or lower than in uninfected monolayers” value turned out to be 0.5 µM; the “expression level of MCP-1” value is “increased”. Further, the “expression level of TNF-α, IL-1β and IL-6” value in series [7] is “dose-dependently reduced”. In addition, in series [8], the “Other targets: MAP2K5 (% of control)” value is “RAF1 (0%), STK10 (1.4%), RIPK2 (6.1%), MAP2K5 (12%), SLK (18%)”. For the same compound, the pEC50 in series [9] was 5.70. The “Other targets: STK10 (% of control)” value in series [10] is on record as “RAF1 (0%), STK10 (1.4%), RIPK2 (6.1%), MAP2K5 (12%), SLK (18%)”.
